Data taken from patent US10206394B2, “Herbicidal compounds” (Syngenta Participations AG, priority 2014, dated 2019).
Where two headings read alike, the source gives them in different places.

How the values were obtained:
Assay in all cases: Glasshouse assay for herbicidal activity (pre- and post-emergence), percentage phytotoxicity
Type in all cases: in vivo
Lolium perenne (LOLPE) = conditions: Lolium perenne
Outline: (§1)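 Seeds were sown in standard soil in pots and grown one day (pre-emergence) or about 12 days (post-emergence) before herbicide application. Plants were kept at 24/18 °C (warm-climate) or 20/16 °C (cool-climate) day/night, 16 h light, 65% humidity, watered twice daily, and damage was scored visually at 15 DAA (POST) or 20 DAA (PRE).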

[1] = test system: Alopecurus myosuroides (ALOMY); conditions: Alopecurus myosuroides
Outline: as §1

[2] = test system: Echinochloa crus-galli (ECHCG); conditions: Echinochloa crus-galli
Outline: as §1

Avena fatua (AVEFA) = conditions: Avena fatua
Outline: as §1

[3] = post-emergence, 360 h, Rate 250 g/ha, post-emergence, visual assessment 15 DAA, 100%=total damage, 0%=no damage, read-out: Post-emergence herbicidal activity (percentage phytotoxicity) LOLPE POST
[4] = pre-emergence, 480 h, Rate 250 g/ha, pre-emergence, visual assessment 20 DAA, 100%=total damage, 0%=no damage, read-out: Pre-emergence herbicidal activity (percentage phytotoxicity) LOLPE PRE
[5] = post-emergence, 360 h, Rate 250 g/ha, post-emergence, visual assessment 15 DAA, 100%=total damage, 0%=no damage, read-out: Post-emergence herbicidal activity (percentage phytotoxicity) ALOMY POST
[6] = pre-emergence, 480 h, Rate 250 g/ha, pre-emergence, visual assessment 20 DAA, 100%=total damage, 0%=no damage, read-out: Pre-emergence herbicidal activity (percentage phytotoxicity) ALOMY PRE
[7] = post-emergence, 360 h, Rate 250 g/ha, post-emergence, visual assessment 15 DAA, 100%=total damage, 0%=no damage, read-out: Post-emergence herbicidal activity (percentage phytotoxicity) ECHCG POST
[8] = pre-emergence, 480 h, Rate 250 g/ha, pre-emergence, visual assessment 20 DAA, 100%=total damage, 0%=no damage, read-out: Pre-emergence herbicidal activity (percentage phytotoxicity) ECHCG PRE
[9] = post-emergence, 360 h, Rate 250 g/ha, post-emergence, visual assessment 15 DAA, 100%=total damage, 0%=no damage, read-out: Post-emergence herbicidal activity (percentage phytotoxicity) AVEFA POST
[10] = pre-emergence, 480 h, Rate 250 g/ha, pre-emergence, visual assessment 20 DAA, 100%=total damage, 0%=no damage, read-out: Pre-emergence herbicidal activity (percentage phytotoxicity) AVEFA PRE
[11] = post-emergence, 360 h, post-emergence, 250 g/ha, 15 DAA, visual score (100%=total damage; 0%=no damage), read-out: LOLPE POST herbicidal activity (percentage phytotoxicity)
[12] = pre-emergence, 480 h, pre-emergence, 250 g/ha, 20 DAA, visual score (100%=total damage; 0%=no damage), read-out: LOLPE PRE herbicidal activity (percentage phytotoxicity)
[13] = post-emergence, 360 h, post-emergence, 250 g/ha, 15 DAA, visual score (100%=total damage; 0%=no damage), read-out: ALOMY POST herbicidal activity (percentage phytotoxicity)
[14] = pre-emergence, 480 h, pre-emergence, 250 g/ha, 20 DAA, visual score (100%=total damage; 0%=no damage), read-out: ALOMY PRE herbicidal activity (percentage phytotoxicity)
[15] = post-emergence, 360 h, post-emergence, 250 g/ha, 15 DAA, visual score (100%=total damage; 0%=no damage), read-out: ECHCG POST herbicidal activity (percentage phytotoxicity)
[16] = pre-emergence, 480 h, pre-emergence, 250 g/ha, 20 DAA, visual score (100%=total damage; 0%=no damage), read-out: ECHCG PRE herbicidal activity (percentage phytotoxicity)
[17] = post-emergence, 360 h, post-emergence, 250 g/ha, 15 DAA, visual score (100%=total damage; 0%=no damage), read-out: AVEFA POST herbicidal activity (percentage phytotoxicity)
[18] = pre-emergence, 480 h, pre-emergence, 250 g/ha, 20 DAA, visual score (100%=total damage; 0%=no damage), read-out: AVEFA PRE herbicidal activity (percentage phytotoxicity)

Row | SMILES | pest or weed control at 250 g/ha (Lolium perenne (LOLPE); [3]) | pest or weed control at 250 g/ha (Lolium perenne (LOLPE); [4]) | pest or weed control at 250 g/ha [1, 5] | pest or weed control at 250 g/ha [1, 6] | pest or weed control at 250 g/ha [2, 7] | pest or weed control at 250 g/ha [2, 8] | pest or weed control at 250 g/ha (Avena fatua (AVEFA); [9]) | pest or weed control at 250 g/ha (Avena fatua (AVEFA); [10]) | pest or weed control at 250 g/ha (Lolium perenne (LOLPE); [11]) | pest or weed control at 250 g/ha (Lolium perenne (LOLPE); [12]) | pest or weed control at 250 g/ha [1, 13] | pest or weed control at 250 g/ha [1, 14] | pest or weed control at 250 g/ha [2, 15] | pest or weed control at 250 g/ha [2, 16] | pest or weed control at 250 g/ha (Avena fatua (AVEFA); [17]) | pest or weed control at 250 g/ha (Avena fatua (AVEFA); [18])
1 | C=Cc1cc(-c2ncc(F)cn2)cc(C)c1C1C(=O)CC(CC(=O)NC(C)(C)C)C1=O (stereo not shown) [Compound B404] | 100% | 80% | 90% | 80% | 100% | 90% | 100% | 70% | – | – | – | – | – | – | – | –
2 | Cc1cc(-c2ncc(F)cn2)cc(Cl)c1C1C(=O)CC(CC(=O)NC(C)(C)C)C1=O (stereo not shown) [Compound B405] | 100% | 100% | 100% | 90% | 100% | 100% | 100% | 90% | – | – | – | – | – | – | – | –
3 | COc1ccc(C(=O)OC2=C(c3c(C)cc(-c4ncc(Cl)cn4)cc3C)C(=O)C(CC(=O)NC(C)(C)C)C2)cc1 (stereo not shown) [Compound P1, [4-[2-(tert-butylamino)-2-oxo-ethyl]-2-[4-(5-chloropyrimidin-2-yl)-2,6-dimethyl-phenyl]-3-oxo-cyclopenten-1-yl] 4-methoxybenzoate] | – | – | – | – | – | – | – | – | 100% | 100% | 100% | 100% | 100% | 100% | 100% | 100%
4 | Cc1cc(-c2ncc(Cl)cn2)cc(C)c1C1=C(OC(=O)c2ccc(F)cc2)CC(CC(=O)NC(C)(C)C)C1=O (stereo not shown) [Compound P2] | – | – | – | – | – | – | – | – | 100% | 100% | 100% | 90% | 100% | 100% | 100% | 90%
5 | Cc1cc(-c2ncc(Cl)cn2)cc(C)c1C1=C(OC(=O)C(C)(C)C)CC(CC(=O)NC(C)(C)C)C1=O (stereo not shown) [Compound P3] | – | – | – | – | – | – | – | – | 100% | 100% | 100% | 100% | 100% | 100% | 90% | 80%
6 | CCOC(=O)OC1=C(c2c(C)cc(-c3ncc(Cl)cn3)cc2C)C(=O)C(CC(=O)NC(C)(C)C)C1 (stereo not shown) [Compound P4] | – | – | – | – | – | – | – | – | 100% | 100% | 90% | 90% | 100% | 100% | 100% | 90%
7 | CCSC(=O)OC1=C(c2c(C)cc(-c3ncc(Cl)cn3)cc2C)C(=O)C(CC(=O)NC(C)(C)C)C1 (stereo not shown) [Compound P5] | – | – | – | – | – | – | – | – | 100% | 100% | 100% | 100% | 100% | 100% | 100% | 90%
8 | CCOCOC1=C(c2c(C)cc(-c3ncc(Cl)cn3)cc2C)C(=O)C(CC(=O)NC(C)(C)C)C1 (stereo not shown) [Compound P6] | 100% | 100% | 100% | 100% | 100% | 100% | 90% | 100% | – | – | – | – | – | – | – | –
9 | Cc1cc(-c2ncc(Cl)cn2)cc(C)c1C1=C(OC(=O)N2CCCC2)C(CC(=O)NC(C)(C)C)CC1=O (stereo not shown) [Compound P7] | 40% | 30% | 70% | 0% | 80% | 50% | 60% | 10% | – | – | – | – | – | – | – | –
10 | Cc1cc(-c2ncc(Cl)cn2)cc(C)c1C1=C(OC(=O)N2CCCC2)CC(CC(=O)NC(C)(C)C)C1=O (stereo not shown) [Compound P8] | 70% | 50% | 70% | 30% | 90% | 70% | 80% | 10% | – | – | – | – | – | – | – | –
11 | COCCCN(C(=O)CC1CC(OC(=O)C(C)(C)C)=C(c2c(C)cc(C)cc2C)C1=O)C(=O)C(C)(C)C (stereo not shown) [Compound P9] | 80% | 90% | 80% | 90% | 80% | 90% | 80% | 60% | – | – | – | – | – | – | – | –
12 | COCCCNC(=O)CC1CC(OC(=O)C(C)(C)C)=C(c2c(C)cc(C)cc2C)C1=O (stereo not shown) [Compound P10] | 90% | 90% | 90% | 90% | 90% | 90% | 90% | 60% | – | – | – | – | – | – | – | –
13 | Cc1cc(C)c(C2=C(OC(=O)C(C)(C)C)CC(CC(N)=O)C2=O)c(C)c1 (stereo not shown) [Compound P11] | 90% | 80% | 80% | 70% | 90% | 90% | 90% | 30% | – | – | – | – | – | – | – | –
14 | Cc1cc(C)c(C2=C(OC(=O)C(C)(C)C)CC(CC(=O)N(C(=O)C(C)(C)C)C3COC3)C2=O)c(C)c1 (stereo not shown) [Compound P12] | 80% | 60% | 80% | 20% | 60% | 70% | 60% | 0% | – | – | – | – | – | – | – | –
15 | Cc1cc(C)c(C2=C(OC(=O)C(C)(C)C)CC(CC(=O)NC3COC3)C2=O)c(C)c1 (stereo not shown) [Compound P13] | 70% | 10% | 80% | 50% | 80% | 20% | 70% | 10% | – | – | – | – | – | – | – | –
16 | Cc1cc(C)c(C2=C(OC(=O)C(C)(C)C)CC(CC(=O)N(C(=O)C(C)(C)C)C3(C)COC3)C2=O)c(C)c1 (stereo not shown) [Compound P14] | 80% | 70% | 80% | 70% | 70% | 70% | 80% | 10% | – | – | – | – | – | – | – | –
17 | Cc1cc(C)c(C2=C(OC(=O)C(C)(C)C)CC(CC(=O)NC3(C)COC3)C2=O)c(C)c1 (stereo not shown) [Compound P15] | 80% | 80% | 90% | 70% | 80% | 100% | 80% | 40% | – | – | – | – | – | – | – | –
